The values that follow come from patent EP4617268A1, “QUINAZOLINE DERIVATIVES” (Kyoto University, priority 2022, dated 2024).

pEC50: −log10 of the molar value. Where only a bound is given, the exact number is not on record here.

The test concerns IKBKAP-FD exon 20 inclusion (IKBKAP gene, IVS20+6T>C mutation). The experiment in a line: SPREADD reporter system for the IKBKAP splicing mutation (exon 20 skipping, IVS20+6T>C) in transfected HeLa cells, GFP/RFP ratio. Particulars: Homo sapiens, 24 h; HeLa cells transfected with SPREADD reporter construct; fluorescence measured one day later; IKBKAP-FD exon 20 inclusion rate by GFP/RFP ratio; %GFP of 20 pM 2-chloro-6-(2-furylmethyl)purine set to 100%. It is filed as cell-based. How it is done:
A SPREADD reporter system for a splicing mutation of the IKBKAP gene in familial dysautonomia was prepared, as illustrated in FIG. 1. In this reporter system, GFP is expressed when the gene undergoes normal splicing, while RFP is expressed when the gene undergoes abnormal splicing (exon skipping).
HeLa cells transfected with the prepared SPREADD reporter construct were brought into contact with the compounds listed in Table 2 below and cultured (concentrations: 22.86237 nM, 68.58711 nM, 205.7613 nM, 617.284 nM, 1851.852 nM, 5555.556 nM, 16666.67 nM, or 50000 nM). One day later, fluorescence was measured using All-in-One Fluorescence Microscope BZ-X700 (Keyence Corp.), and the IKBKAP-FD exon 20 inclusion rate was quantified by the GFP/RFP ratio of the IKBKAP-FD reporter. […] The EC50 was determined with %GFP of 20 pM 2-chloro-6-(2-furylmethyl)purine set to 100%. Regression analysis for determining EC50 was performed using GraphPad Prism 7.05.

One may read the pEC50 as −log10 of the EC50, conventionally taken in molar units. In the case of `COc1cc2nc(Cl)nc(NCc3ccco3)c2cc1OC` [Example 1, 2-Chloro-N-(furan-2-ylmethyl)-6,7-dimethoxyquinazolin-4-amine], the pEC50 is 5.68.

As to `COc1cc2nc(Cl)nc(NCc3cccs3)c2cc1OC` [Example 2, 2-Chloro-6,7-dimethoxy-N-(thiophen-2-ylmethyl)quinazolin-4-amine], the pEC50 is 5.67.

Take `COc1cc2nc(Cl)nc(NCc3ccsc3)c2cc1OC` [Example 3, 2-Chloro-6,7-dimethoxy-N-(thiophen-3-ylmethyl)quinazolin-4-amine]: the pEC50 is 5.55.

Take `COc1cc2nc(Cl)nc(NCc3nccs3)c2cc1OC` [Example 4, 2-Chloro-6,7-dimethoxy-N-(1,3-thiazol-2-ylmethyl)quinazolin-4-amine]: the pEC50 was 4.44.

In the case of `COc1cc2nc(Cl)nc(NCc3ccncc3)c2cc1OC` [Example 5, 2-Chloro-6,7-dimethoxy-N-(pyridin-4-ylmethyl)quinazolin-4-amine], the pEC50 is 5.38.

Regarding `COc1cc2nc(Cl)nc(NCc3ncco3)c2cc1OC` [Example 6, 2-Chloro-6,7-dimethoxy-N-(1,3-oxazol-2-ylmethyl)quinazolin-4-amine], the pEC50 was 5.24.

For the molecule `COc1cc2nc(Cl)nc(NCc3cc[nH]c3)c2cc1OC` [Example 7, 2-Chloro-6,7-dimethoxy-N-(1H-pyrrol-3-ylmethyl) quinazolin-4-amine], the pEC50 was 4.66.

As to `COc1cc2nc(Cl)nc(NCc3ccoc3)c2cc1OC` [Example 8, 2-Chloro-N-(furan-3-ylmethyl)-6,7-dimethoxyquinazolin-4-amine], the pEC50 was 4.70.

In the case of `COc1cc2nc(Cl)nc(NCc3ccccn3)c2cc1OC` [Example 9, 2-Chloro-6,7-dimethoxy-N-(pyridin-2-ylmethyl)quinazolin-4-amine], the pEC50 was 5.48.

As for `COc1ccc2c(NCc3ccco3)nc(Cl)nc2c1` [Example 10, 2-Chloro-N-(furan-2-ylmethyl)-7-methoxyquinazolin-4-amine], the negative-log EC50 (pEC50) is 5.54.

`COc1ccc2nc(Cl)nc(NCc3ccco3)c2c1` [Example 11, 2-Chloro-N-(furan-2-ylmethyl)-6-methoxyquinazolin-4-amine]: the negative-log EC50 (pEC50) is 5.10.

Turning to `COc1ccc2c(NCc3ccco3)cc(Cl)nc2c1` [Example 12, 2-Chloro-N-(furan-2-ylmethyl)-7-methoxyquinolin-4-amine], the pEC50 is 5.97.

Consider `COc1ccc2nc(Cl)cc(NCc3ccco3)c2c1` [Example 13, 2-Chloro-N-(furan-2-ylmethyl)-6-methoxyquinolin-4-amine], for which the negative logarithm of the EC50 (pEC50) is 5.36.

Regarding `CCOc1cc2c(NCc3ccco3)nc(Cl)nc2cc1OC` [Example 14, 2-Chloro-6-ethoxy-N-(furan-2-ylmethyl)-7-methoxyquinazolin-4-amine], the pEC50 was 5.86.

As for `CCCOc1cc2c(NCc3ccco3)nc(Cl)nc2cc1OC` [Example 15, 2-Chloro-N-(furan-2-ylmethyl)-7-methoxy-6-propoxyquinazolin-4-amine], the pEC50 was 6.22.

On to `COc1cc2nc(Cl)nc(NCc3ccco3)c2cc1OC(C)C` [Example 16, 2-Chloro-N-(furan-2-ylmethyl)-7-methoxy-6-(propan-2-yloxy)quinazolin-4-amine], for which the pEC50 was 5.60.

For the molecule `COCCOc1cc2c(NCc3ccco3)nc(Cl)nc2cc1OC` [Example 17, 2-Chloro-N-(furan-2-ylmethyl)-7-methoxy-6-(2-methoxyethoxy)quinazolin-4-amine], the pEC50 is 5.51.

As for `COc1cc2nc(Cl)nc(NCc3ccco3)c2cc1OCC1CC1` [Example 18, 2-Chloro-6-(cyclopropylmethoxy)-N-(furan-2-ylmethyl)-7-methoxyquinazolin-4-amine], the pEC50 was 5.80.

Take `COc1cc2nc(Cl)nc(NCc3ccco3)c2cc1OCC1COC1` [Example 19, 2-Chloro-N-(furan-2-ylmethyl)-7-methoxy-6-(oxetan-3-ylmethoxy)quinazolin-4-amine]: the pEC50 was 6.77.

`COc1cc2nc(Cl)nc(NCc3ccco3)c2cc1OCCN1CCOCC1` [Example 20, 2-Chloro-N-(furan-2-ylmethyl)-7-methoxy-6-[2-(morpholin-4-yl)ethoxy] quinazolin-4-amine]: the pEC50 is 5.08.

Turning to `COc1cc2nc(Cl)nc(NCc3ccco3)c2cc1OCCCN1CCOCC1` [Example 21, 2-Chloro-N-(furan-2-ylmethyl)-7-methoxy-6-[3-(morpholin-4-yl)propoxy]quinazolin-4-amine], the pEC50 is 5.07.

Consider `COc1cc2nc(Cl)nc(NCc3ccco3)c2cc1OCCC1CS(=O)(=O)C1` [Example 22, 2-Chloro-6-[2-(1,1-dioxidothiethan-3-yl)ethoxy]-N-(furan-2-ylmethyl)-7-methoxyquinazolin-4-amine], for which the pEC50 was 4.84.

For `COc1cc2nc(Cl)nc(NCc3ccco3)c2cc1OCCN` [Example 23, 6-(2-Aminoethoxy)-2-chloro-N-(furan-2-ylmethyl)-7-methoxyquinazolin-4-amine], the pEC50 was 6.28.

Turning to `CNCCOc1cc2c(NCc3ccco3)nc(Cl)nc2cc1OC` [Example 24, 2-Chloro-N-(furan-2-ylmethyl)-7-methoxy-6-[2-(methylamino)ethoxy]quinazolin-4-amine], the pEC50 is 6.32.

`COc1cc2nc(Cl)nc(NCc3ccco3)c2cc1OCCN(C)C` [Example 25, 2-Chloro-6-[2-(dimethylamino)ethoxy]-N-(furan-2-ylmethyl)-7-methoxyquinazolin-4-amine]: the negative logarithm of the EC50 (pEC50) is 6.10.

For `COc1cc2nc(Cl)nc(NCc3ccco3)c2cc1OCCO` [Example 26, 2-({2-Chloro-4-[(furan-2-ylmethyl)amino]-7-methoxyquinazolin-6-yl}oxy)ethanol], the pEC50 is 6.09.

Take `COc1cc2nc(Cl)nc(NCc3ccco3)c2cc1OCC1COCCO1` (stereo not drawn) [Example 27, 2-Chloro-6-(1,4-dioxan-2-ylmethoxy)-N-(furan-2-ylmethyl)-7-methoxyquinazolin-4-amine]: the pEC50 was 5.69.

`COc1cc2nc(Cl)nc(NCc3ccco3)c2cc1OCCC(=O)O` [Example 28, 3-({2-Chloro-4-[(furan-2-ylmethyl)amino]-7-methoxyquinazolin-6-yl}oxy)propanoic acid]: the pEC50 is less than 4.30.

Take `COC(=O)CCOc1cc2c(NCc3ccco3)nc(Cl)nc2cc1OC` [Example 29, Methyl 3-({2-chloro-4-[(furan-2-ylmethyl)amino]-7-methoxyquinazolin-6-yl}oxy)propanoate]: the pEC50 was 5.19.

As for `COC(=O)COc1cc2c(NCc3ccco3)nc(Cl)nc2cc1OC` [Example 30, Methyl ({2-chloro-4-[(furan-2-ylmethyl)amino]-7-methoxyquinazolin-6-yl}oxy)acetate], the pEC50 was 4.58.

As for `COc1cc2c(NCc3ccco3)nc(Cl)nc2cc1OCCN` [Example 31, 7-(2-Aminoethoxy)-2-chloro-N-(furan-2-ylmethyl)-6-methoxyquinazolin-4-amine], the pEC50 is 5.50.

For the molecule `CNCCOc1cc2nc(Cl)nc(NCc3ccco3)c2cc1OC` [Example 32, 2-Chloro-N-(furan-2-ylmethyl)-6-methoxy-7-[2-(methylamino)ethoxy]quinazolin-4-amine], the pEC50 is 5.37.

With `CCOc1cc2nc(Cl)nc(NCc3ccco3)c2cc1OC` [Example 33, 2-Chloro-7-ethoxy-N-(furan-2-ylmethyl)-6-methoxyquinazolin-4-amine], the pEC50 was 5.44.
